The source of these data is publication PMC8510480, “Searching Anti-Zika Virus Activity in 1H-1,2,3-Triazole Based Compounds” (Molecules, 2021).

SMILES strings stand for the structures. Values joined by “and” are separate entries in the source; they are usually repeats but may differ in a detail not shown here. Equal entries are not always repeated. Where two headings read alike, the source gives them in different places. Where only a bound is given, the exact number is not on record here.

The test system of series [1] is macrophages (peritoneal and J774A.1) and fibroblast cells. Set-up: method as in PMID 33339081. The conditions noted are these: ref [28]; cited from earlier work.
In series [2] the test system is Vero cells. The series is described as follows: Cytotoxicity test with MTT method in Vero cells. The format is cell-based, African green monkey. The note with it: for CC20 (20% cytotoxic concentration): 5 days. The procedure: (§1) The cytotoxicity of compounds 1–7 to Vero cells, an epithelial cell line derived from the kidney of an African green monkey, was tested using the 3-(4,5-dimethylthiazol-2-yl)-2,5-diphenyltetrazolium bromide (MTT) method. […] Based on CC20 values, which was the maximum concentration used for antiviral screening, 3b compound was the least toxic with a value of 527.2 µM. Compounds 2a and 2b were the most cytotoxic with values of 8.87 µM and 9.89 µM, respectively. […] The results from compounds 3a, 3b and 4a, 4b ranged from 40.69 to 527.20 µM. […] The presence of phthalimide group or sugar increases the values of CC20 and CC50 (Table 2 and Supplementary Material: Figure S1).
(§2) 96-well plates with 1 × 10^4 cell/well were used in this assay and prepared 24 h previously. The compounds were diluted in a 2:1 ratio so that a maximum of 0.8% DMSO was used. The concentrations used were 800, 400, 200, 100, 50, 25 and 12.5 µM. Dilutions were added to the wells in triplicate and incubated at 37 °C and 5% CO2 atmosphere. After 5 days, the wells were emptied and a 50 µL of 1 mg/mL MTT (3-(4,5-dimethylthiazol-2-yl)-2,5-diphenyltetrazolium bromide) (Sigma-Aldrich) solution was added, and the cells were incubated for 3–4 h for formation of formazan crystals through the mitochondria of viable cells. Then, medium was removed and 100 µL DMSO was added to the wells to solubilize the formazan crystals. With the aid of an incubator Tecnal TE-420 (Tecnal Equipamentos Científicos, Piracicaba, São Paulo, Brazil), the plates were homogenized at 120 RPM at 37 °C and the optical densities were read at 570 nm on a spectrophotometer BioTekTM ELx800TM (BioTek Instruments, Winooski, VT, USA).
(§3) The determination of the CC20 and CC50 values was obtained through the linear regression analysis of the XY graph generated by the values of the concentrations used in the test and the triplicate values of the viability. In the post-infection and pre-treatment tests, ANOVA and Dunnett tests were used, considering […] as the minimum significance value. All tests were performed in GraphPad Prism v.6.0 program (GraphPad Software, Inc., San Diego, CA, USA).
In general terms: Tetrazolium dyes change colour on reduction, which living cells bring about.

A short description of series [3]: Cytotoxicity test with MTT method in Vero cells. It counts as cell-based, African green monkey. The note with it: African green monkey, 5 days, read-out: CC50 (50% cytotoxic concentration). Here is the method: as §1, §2, §3
The subject of the next series is ZIKV. Put plainly: Post-infection test with ZIKV in Vero cells. It counts as cell-based, Zika virus. The procedure: We then investigated the activity of compound 4b after ZIKV infection in cells. As already noted in the screening test, 4b reduced ZIKV growth to levels similar to 6MMPr, a positive control previously described by our group. As in the pre-treatment test, four different concentrations were used, with the maximum being CC20 (136.90, 68.45, 34.22 and 17.11 µM). […] It is worth highlighting the constant decrease in the viral titer, even in lower concentrations, while the positive control 6MMPr reduces it only in the highest concentrations.
Statistical analysis compared the concentrations of each compound at each collection time (3 d.p.i. and 5 d.p.i.) with a t-test.
Figure 6 Comparison of anti-ZIKV activity between 6MMPr and 4b after three- and five-days post-infection (d.p.i.). 6MMPr and compound 4b were submitted to a post-infection test when Vero cells was infected with ZIKV at MOI 0.1 for 2 h then treated with compounds. Concentrations used in the test corresponded to CC20 (4b = 136.90 µM; 6MMPr = 60.50 µM), CC20/2 (4b = 68.45 µM; 6MMPr = 30.25 µM), CC20/4 (4b = 34.22 µM; 6MMPr = 15.13 µM) and CC20/8 (4b = 17.11 µM; 6MMPr = 7.56 µM). The experiment was done in triplicates and values are the mean and the SD. Statistical analysis was made between compounds using t-test on GraphPad Prism program. * = significative; ns = not statistically significant for p < 0.05. (a) 3 d.p.i. from both compounds. (b) 5 d.p.i. from both compounds.
96-well plates with 1 × 10^4 cell/well were used in this assay and prepared 24 h previously. Seven serial dilutions of the virus were prepared in DMEM + 2% FBS culture medium. After removing the culture medium from the plate, 50 µL of each dilution was added to the wells in several repetitions. The plate was incubated at 37 °C and 5% atm CO2 for 1 h. After this interval, each well of the plate received an additional 100 µL of DMEM + 2% FBS culture medium. The plate was incubated again, in the same parameters, for 5 days. Some columns of the plate were selected for use as a cell control (culture medium only, no virus). The reading was performed in an inverted optical microscope AE2000, Motic (Motic, Kowloon Bay, Hong Kong) counting positives wells by the presence of cytopathic effect and the determination of the sample title was performed with the aid of the Microsoft Office Excel program (Microsoft® Office, Redmond, WA, USA).
48-well plates with 2.5 × 10^4 cells/well were prepared 24 h previously. A ZIKV solution at MOI 0.1 was inoculated into the wells and the cells incubated at 37 °C and 5% CO2 atmosphere. After 2 h, the culture medium was removed, and the wells were washed with 1X PBS. 2:1 dilution of 4b (136.90 µM, 68.45 µM, 34.22 µM and 17.11 µM) and 6MMPr (60.50 µM, 30.25 µM, 15.13 µM and 7.56 µM) were added in triplicate. The cells were again incubated for 72 h and 120 h. The supernatants from the wells were collected and titrated.

For series [4], the system named is Vero cells. Set-up: method as in PMID 28803932. The conditions noted are these: ref [17], cited from earlier work.

As for `O=C1c2ccccc2C(=O)N1CCn1cc(-c2ccccc2)nn1` [4-phenyl-1-[2-(phthalimido-2-yl)ethyl]-1-H-1,2,3-triazole], the cytotoxicity result in series [1] is listed as “low cytotoxicity”.

Regarding `CC(C)(O)c1cn(CN2C(=O)c3ccccc3C2=O)nn1` [Compound 1], the “CC20 (20% cytotoxic concentration)” value in the series on Vero cells [2] stood at 177.10 µM. In series [3], the CC50 at 5 days came to 680 µM.

Consider `O=C1C=C(n2cc(CCO)nn2)C(=O)c2ccccc21` [Compound 2a], for which the “CC20 (20% cytotoxic concentration)” value with Vero cells [2] was 8.87 µM. Also, the CC50 at 5 days in series [3] was 38 µM.

Turning to `O=C1C=C(n2cc(CCCO)nn2)C(=O)c2ccccc21` [Compound 2b], the “CC20 (20% cytotoxic concentration)” value in the series on Vero cells [2] was 9.89 µM. Besides, the CC50 at 5 days in series [3] came out at 38.8 µM.

Take `O=C1C=C(NCc2cn(CN3C(=O)c4ccccc4C3=O)nn2)C(=O)c2ccccc21` [Compound 3a]: the “CC20 (20% cytotoxic concentration)” value in the series on Vero cells [2] is 55.28 µM. The CC50 at 5 days in series [3] stood at 470 µM.

Consider `O=C1C=C(NCc2cn(CCN3C(=O)c4ccccc4C3=O)nn2)C(=O)c2ccccc21` [Compound 3b], for which the “CC20 (20% cytotoxic concentration)” value in the series with Vero cells [2] was 527.2 µM and 527.20 µM. Moreover, the CC50 at 5 days in series [3] stood at 1190 µM.

Consider `O=C1C(Br)=C(NCc2cn(CCCN3C(=O)c4ccccc4C3=O)nn2)C(=O)c2ccccc21` [Compound 4a], for which the “CC20 (20% cytotoxic concentration)” value in the series on Vero cells [2] is given as 40.69 µM. The CC50 at 5 days in series [3] stood at 68.8 µM.

As usually defined, the melting point is the temperature, or range, at which the solid turns liquid. `O=C1C=C(NCCn2cc(CCCO)nn2)C(=O)c2ccccc21` [Compound 5a, 2-[2-(4-(3-Hydroxypropyl)-1H-1,2,3-triazol-1-yl)]-ethylamino-1,4-naphthoquinone]: the melting point lay within 143 to 145 °C. Moreover, in the series with Vero cells [2], the “concentration until which cells remain viable” value is listed as ≤ 400 µM and the “CC20 (20% cytotoxic concentration)” value is 74.85 µM. Besides, in series [3], the CC50 at 5 days was found to be 294 µM.

Regarding `CC(C)(O)c1cn(CCNC2=CC(=O)c3ccccc3C2=O)nn1` [Compound 5b], in the series with Vero cells [2], the “concentration until which cells remain viable” value is recorded as ≤ 400 µM and the “CC20 (20% cytotoxic concentration)” value worked out at 66.93 µM. The CC50 at 5 days in series [3] stood at 298 µM.

With `CSc1ncnc2c1ncn2[C@@H]1O[C@H](CO)[C@@H](O)[C@H]1O` [Compound 6MMPr, 6-methylmercaptopurine riboside, reference compound], the “% Viral Inhibition” value in the series with ZIKV (3 d.p.i., CC20 (4b 136.90 µM; 6MMPr 60.50 µM)) is listed as 99.8%; in the series with ZIKV (3 d.p.i., CC20/2 (4b 68.45 µM; 6MMPr 30.25 µM)) it was 54.4%; with ZIKV (3 d.p.i., CC20/4 (4b 34.23 µM; 6MMPr 15.13 µM)) it was 42.7%; in the series with ZIKV (3 d.p.i., CC20/8 (4b 17.11 µM; 6MMPr 7.6 µM), negative = increased virus titer compared to control) it was −93.4 * %; in the series with ZIKV (5 d.p.i., CC20 (4b 136.90 µM; 6MMPr 60.50 µM)), 99.7%; with ZIKV (5 d.p.i., CC20/2 (4b 68.45 µM; 6MMPr 30.25 µM)), 96.8%. Besides, the “% Viral Inhibition” value stood at 95.1% in the series on ZIKV (5 d.p.i., CC20/4 (4b 34.23 µM; 6MMPr 15.13 µM)); 81.1% in the series on ZIKV (5 d.p.i., CC20/8 (4b 17.11 µM; 6MMPr 7.6 µM)); 97.8% in the series with ZIKV (post-infection test, Table 4, concentration and time not stated). Also, the IC50 in the series on ZIKV (post-infection test, ZIKV MOI 0.1, Vero cells, read-out: IC50 (50% inhibition concentration, virus replication)) was 24.5 µM. Further, the “effect on growth of the virus (viral titer)” value in the series on ZIKV (post-infection, four concentrations from CC20 to CC20/8, 3 and 5 d.p.i.) is “prevents the growth of the virus in both cases”. Besides, in the series on ZIKV (ratio between the CC50 and IC50 values), the “SI (selectivity index)” value stood at 11.9. Besides, the CC50 in the series with Vero cells [4] (read-out: CC50 (50% cytotoxic concentration)) was 291 µM. Also, in the series on Vero cells [4], the “CC20 (20% cytotoxic concentration)” value is 60.50 µM and 60.5 µM.

Regarding `CC(=O)OC[C@H]1O[C@H](OCCc2cn(C3=CC(=O)c4ccccc4C3=O)nn2)C=C[C@@H]1OC(C)=O` [Compound 6a], the “CC20 (20% cytotoxic concentration)” value in the series on Vero cells [2] is on record as 39.92 µM. Moreover, the CC50 at 5 days in series [3] was determined as 68 µM.

`CC(=O)OC[C@H]1O[C@H](OCc2cn(C3=CC(=O)c4ccccc4C3=O)nn2)C=C[C@@H]1OC(C)=O` [Compound 6b]: the “CC20 (20% cytotoxic concentration)” value in the series on Vero cells [2] worked out at 21.18 µM. The CC50 at 5 days in series [3] was found to be 48.7 µM.

For the compound `CC(=O)OC[C@H]1O[C@H](OC(C)(C)c2cn(C3=CC(=O)c4ccccc4C3=O)nn2)C=C[C@@H]1OC(C)=O` [Compound 6c], the “CC20 (20% cytotoxic concentration)” value in the series on Vero cells [2] is 25.73 µM. In series [3], the CC50 at 5 days came to 58.1 µM.

With `CC(=O)OC[C@H]1O[C@H](OCCCc2cn(C3=CC(=O)c4ccccc4C3=O)nn2)C=C[C@@H]1OC(C)=O` [Compound 6d], the “CC20 (20% cytotoxic concentration)” value in the series with Vero cells [2] stood at 38.61 µM. In addition, the CC50 at 5 days in series [3] was 69.5 µM.

On to `CC(=O)OCC1OC(n2cc(CNC3=C(Br)C(=O)c4ccccc4C3=O)nn2)C(OC(C)=O)C(OC(C)=O)C1OC(C)=O` (centres unmarked) [Compound 7], for which, in the series on Vero cells [2], the “CC20 (20% cytotoxic concentration)” value worked out at 119.10 µM. Moreover, the CC50 at 5 days in series [3] turned out to be 334 µM.
